Residues, ends and D or L forms follow the SMILES beside them.
Test system: rats
Test: Arterial blood pressure in anesthetized rats
Assay type: in vivo
Procedure: White random-bred male rats weighing approximately 200 g were employed for this study. Each dose of each respective test or control substance was administered to a group of five rats. GE and VT were employed as test substances and were administered intravenously at doses of 0.01, 0.1, 1.0, and 10.0 mg/kg. Physiological saline (0.2 ml) served as the negative control substance. The ganglionic blocking agent, pentamine, served as the positive control substance and was tested at a dose of 5 mg/kg. Following administration of the test substance, positive control substance, or negative control substance, the arterial blood pressure of each animal was monitored.
Prior to administration of the test or control substance, each animal was anesthetized with Chloralose and then both its carotid artery and jugular vein were catheterized. The carotid catheter was connected to an electronic manometer attached to a computer recorder through an analog-to-digital converter. The mean basal level of the arterial blood pressure was determined as follows: For a period of 30 seconds, the digital signal pertaining to the arterial blood pressure was recorded at 1-second intervals. The mean value of these thirty individual measurements was then determined and recorded.
After determining the mean basal level of the arterial blood pressure, a particular dose of the test or control substance was administered in a volume of 0.2 ml of physiological saline to an animal through the jugular venous catheter. Measurements of the arterial blood pressure were then taken during the next 1.5 hours as follows: (i) during the first 5 minutes, the arterial blood pressure was being monitored continuously and mean values were calculated electronically and recorded at each of the ten different 30-second intervals (i.e., 30th second, 60th second, etc.); (ii) thereafter, mean values of the arterial blood pressure were calculated at the first seconds of 10th minute, 15th minute, 30th minute, 45th minute, 60th minute, 75th minute, and 90th minute after administration of the respective test or control substance.

In the case of NCC(=O)N[C@@H](CCC(=O)O)C(=O)O [GE, L-Glycyl-L-Glutamic acid] (H-Gly-Glu-OH), the “Arterial Blood Pressure (Basal Level = 100.00)” value (0.01 mg/kg i.v., 1 min) is reported as 101.02%, the “Arterial Blood Pressure (Basal Level = 100.00)” value (0.01 mg/kg i.v., 2 min) is reported as 102.72% and the “Arterial Blood Pressure (Basal Level = 100.00)” value (0.01 mg/kg i.v., 3 min) is reported as 103.88%. For the same molecule, the “Arterial Blood Pressure (Basal Level = 100.00)” value (0.01 mg/kg i.v., 4 min) was 99.77%, the “Arterial Blood Pressure (Basal Level = 100.00)” value (0.01 mg/kg i.v., 5 min) was 102.90% and the “Arterial Blood Pressure (Basal Level = 100.00)” value (0.01 mg/kg i.v., 10 min) was 96.17%. The “Arterial Blood Pressure (Basal Level = 100.00)” value (0.01 mg/kg i.v., 15 min) was 97.01%, the “Arterial Blood Pressure (Basal Level = 100.00)” value (0.01 mg/kg i.v., 30 min) was 98.26% and the “Arterial Blood Pressure (Basal Level = 100.00)” value (0.01 mg/kg i.v., 45 min) was 99.01%. The “Arterial Blood Pressure (Basal Level = 100.00)” value (0.01 mg/kg i.v., 60 min) was 93.29%, the “Arterial Blood Pressure (Basal Level = 100.00)” value (0.01 mg/kg i.v., 75 min) was 94.15% and the “Arterial Blood Pressure (Basal Level = 100.00)” value (0.01 mg/kg i.v., 90 min) was 102.09%. The “Arterial Blood Pressure (Basal Level = 100.00)” value (0.1 mg/kg i.v., 1 min) was 96.00%, the “Arterial Blood Pressure (Basal Level = 100.00)” value (0.1 mg/kg i.v., 2 min) was 96.60% and the “Arterial Blood Pressure (Basal Level = 100.00)” value (0.1 mg/kg i.v., 3 min) was 97.66%. For the same molecule, the “Arterial Blood Pressure (Basal Level = 100.00)” value (0.1 mg/kg i.v., 4 min) was 97.32%, the “Arterial Blood Pressure (Basal Level = 100.00)” value (0.1 mg/kg i.v., 5 min) was 98.31% and the “Arterial Blood Pressure (Basal Level = 100.00)” value (0.1 mg/kg i.v., 10 min) was 96.04%. The “Arterial Blood Pressure (Basal Level = 100.00)” value (0.1 mg/kg i.v., 15 min) was 94.98%, the “Arterial Blood Pressure (Basal Level = 100.00)” value (0.1 mg/kg i.v., 30 min) was 93.56% and the “Arterial Blood Pressure (Basal Level = 100.00)” value (0.1 mg/kg i.v., 45 min) was 80.15%. The “Arterial Blood Pressure (Basal Level = 100.00)” value (0.1 mg/kg i.v., 60 min) was 83.03%, the “Arterial Blood Pressure (Basal Level = 100.00)” value (0.1 mg/kg i.v., 75 min) was 83.37% and the “Arterial Blood Pressure (Basal Level = 100.00)” value (0.1 mg/kg i.v., 90 min) was 84.50%. The “Arterial Blood Pressure (Basal Level = 100.00)” value (1.0 mg/kg i.v., 1 min) was 70.32%, the “Arterial Blood Pressure (Basal Level = 100.00)” value (1.0 mg/kg i.v., 2 min) was 84.63% and the “Arterial Blood Pressure (Basal Level = 100.00)” value (1.0 mg/kg i.v., 3 min) was 90.73%. The “Arterial Blood Pressure (Basal Level = 100.00)” value (1.0 mg/kg i.v., 4 min) was 93.72%, the “Arterial Blood Pressure (Basal Level = 100.00)” value (1.0 mg/kg i.v., 5 min) was 98.11% and the “Arterial Blood Pressure (Basal Level = 100.00)” value (1.0 mg/kg i.v., 10 min) was 94.67%. The “Arterial Blood Pressure (Basal Level = 100.00)” value (1.0 mg/kg i.v., 15 min) was 92.70%, the “Arterial Blood Pressure (Basal Level = 100.00)” value (1.0 mg/kg i.v., 30 min) was 90.58% and the “Arterial Blood Pressure (Basal Level = 100.00)” value (1.0 mg/kg i.v., 45 min) was 88.43%. For the same molecule, the “Arterial Blood Pressure (Basal Level = 100.00)” value (1.0 mg/kg i.v., 60 min) was 88.85%, the “Arterial Blood Pressure (Basal Level = 100.00)” value (1.0 mg/kg i.v., 75 min) was 90.07% and the “Arterial Blood Pressure (Basal Level = 100.00)” value (1.0 mg/kg i.v., 90 min) was 89.82%. For the same molecule, the “Arterial Blood Pressure (Basal Level = 100.00)” value (10.0 mg/kg i.v., 1 min) was 94.68%, the “Arterial Blood Pressure (Basal Level = 100.00)” value (10.0 mg/kg i.v., 2 min) was 100.17% and the “Arterial Blood Pressure (Basal Level = 100.00)” value (10.0 mg/kg i.v., 3 min) was 101.63%. For the same molecule, the “Arterial Blood Pressure (Basal Level = 100.00)” value (10.0 mg/kg i.v., 4 min) was 101.22%, the “Arterial Blood Pressure (Basal Level = 100.00)” value (10.0 mg/kg i.v., 5 min) was 100.20% and the “Arterial Blood Pressure (Basal Level = 100.00)” value (10.0 mg/kg i.v., 10 min) was 95.61%. The “Arterial Blood Pressure (Basal Level = 100.00)” value (10.0 mg/kg i.v., 15 min) was 91.27%, the “Arterial Blood Pressure (Basal Level = 100.00)” value (10.0 mg/kg i.v., 30 min) was 88.24% and the “Arterial Blood Pressure (Basal Level = 100.00)” value (10.0 mg/kg i.v., 45 min) was 89.56%. The “Arterial Blood Pressure (Basal Level = 100.00)” value (10.0 mg/kg i.v., 60 min) was 85.99%, the “Arterial Blood Pressure (Basal Level = 100.00)” value (10.0 mg/kg i.v., 75 min) was 87.12% and the “Arterial Blood Pressure (Basal Level = 100.00)” value (10.0 mg/kg i.v., 90 min) was 78.69%. The “effect on mean arterial blood pressure” value (after about 60 to 90 minutes) was “moderate, but delayed, decrease in the mean arterial blood pressure”.
